# Data as given in the NIST ThermoML archive (doi:10.1021/je300630u).
# ± gives the expanded uncertainty stated by the source.
# Assays:
# [1] = refractive index (other wavelength) (dimensionless); settings: 101 kPa, Liquid, Wavelength=632.8 nm, Standard Abbe refractometry
# [2] = refractive index (other wavelength) (dimensionless); xn = mol fraction of the nth substance listed; settings: 295.84 K, 101.3 kPa, Liquid, Wavelength=632.8 nm, Standard Abbe refractometry
smiles,measurement,setting,value
N#Cc1ccccc1 [benzonitrile],refractive index,[1]; 293.37 K,1.5252 ± 0.0004
same,refractive index,[1]; 293.99 K,1.5249 ± 0.0004
same,refractive index,[1]; 294.53 K,1.5247 ± 0.0004
same,refractive index,[1]; 295.09 K,1.5243 ± 0.0004
same,refractive index,[1]; 295.66 K,1.5241 ± 0.0004
same,refractive index,[1]; 295.84 K,1.5239 ± 0.0004
same,refractive index,[1]; 296.11 K,1.5238 ± 0.0004
same,refractive index,[1]; 296.8 K,1.5236 ± 0.0004
same,refractive index,[1]; 297.15 K,1.5233 ± 0.0004
same,refractive index,[1]; 297.91 K,1.523 ± 0.0004
same,refractive index,[1]; 298.2 K,1.5228 ± 0.0004
same,refractive index,[1]; 298.8 K,1.5225 ± 0.0004
same,refractive index,[1]; 298.83 K,1.5226 ± 0.0004
same,refractive index,[1]; 299.26 K,1.5223 ± 0.0004
same,refractive index,[1]; 300.06 K,1.5219 ± 0.0004
same,refractive index,[1]; 300.12 K,1.5219 ± 0.0004
same,refractive index,[1]; 300.31 K,1.5218 ± 0.0004
same,refractive index,[1]; 301.13 K,1.5214 ± 0.0004
same,refractive index,[1]; 301.23 K,1.5214 ± 0.0004
same,refractive index,[1]; 301.35 K,1.5213 ± 0.0004
same,refractive index,[1]; 302.26 K,1.5209 ± 0.0004
same,refractive index,[1]; 302.31 K,1.5209 ± 0.0004
same,refractive index,[1]; 302.42 K,1.5208 ± 0.0004
same,refractive index,[1]; 303.41 K,1.5203 ± 0.0004
same,refractive index,[1]; 304.49 K,1.5198 ± 0.0004
same,refractive index,[1]; 305.64 K,1.5192 ± 0.0004
same,refractive index,[1]; 306.89 K,1.5186 ± 0.0004
same,refractive index,[1]; 307.88 K,1.5181 ± 0.0004
N#Cc1ccccc1 [benzonitrile] + CCCCCCCCCCCCC,refractive index,[2]; x1 = 0.1148,1.428 ± 0.0004
same,refractive index,[2]; x1 = 0.2007,1.4323 ± 0.0004
same,refractive index,[2]; x1 = 0.3192,1.439 ± 0.0004
same,refractive index,[2]; x1 = 0.3935,1.4443 ± 0.0004
same,refractive index,[2]; x1 = 0.5,1.4525 ± 0.0004
same,refractive index,[2]; x1 = 0.6113,1.4629 ± 0.0004
same,refractive index,[2]; x1 = 0.7078,1.4738 ± 0.0004
same,refractive index,[2]; x1 = 0.8007,1.4865 ± 0.0004
same,refractive index,[2]; x1 = 0.9009,1.5032 ± 0.0004
same,refractive index,[2]; x1 = 1,1.5239 ± 0.0004
CCCCCCCCCCCCC [tridecane],refractive index,[1]; 293.2 K,1.4244 ± 0.0004
same,refractive index,[1]; 294.26 K,1.4239 ± 0.0004
same,refractive index,[1]; 295.29 K,1.4234 ± 0.0004
same,refractive index,[1]; 295.84 K,1.4231 ± 0.0004
same,refractive index,[1]; 296.33 K,1.423 ± 0.0004
same,refractive index,[1]; 297.35 K,1.4225 ± 0.0004
same,refractive index,[1]; 298.37 K,1.4221 ± 0.0004
same,refractive index,[1]; 299.42 K,1.4216 ± 0.0004
same,refractive index,[1]; 300.39 K,1.4212 ± 0.0004
same,refractive index,[1]; 301.47 K,1.4207 ± 0.0004
CCCCCCCCCCCCC [tridecane] + N#Cc1ccccc1,refractive index,[2]; x2 = 0,1.4231 ± 0.0004
